From patent US12304890B2, “R-type pyridyloxycarboxylic acid, salt and ester derivative thereof, and preparation method therefor, and herbicidal composition and application thereof” (Qingdao Kingagroot Chemical Compound Co., Ltd., priority 2018, dated 2025) come the findings set out here.

Assay type in all cases: in vivo
Test [1] concerns Monocotyledonous and dicotyledonous weed seeds and main crop seeds. Kind of test: Post-emergence test experiment, other weeds and crops (Table 4, 1000 g a.i./ha). The note with it: 3 weeks in greenhouse, fresh weight inhibition. The gist of the method:
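Weed and crop seeds (wheat, corn, rice, soybean, cotton, oilseed, millet, sorghum) sown in soil pots in a greenhouse and sprayed at 2-3 leaf stage, 2 weeks after sowing. Compound in acetone/tween-80 with methyl oleate concentrate (1.5 L/ha) as synergist. Effect recorded as fresh-weight growth inhibition rate.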

The test system of test [2] is Echinochloa crusgalli. Put plainly: Post-emergence test experiment, Echinochloa crusgalli. Particulars: 1000 g a.i./ha, 3 weeks in greenhouse, fresh weight inhibition. The gist of the method:
(§1)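 Read-out is fresh weight inhibition rate, taken 3 weeks after spraying. Treatment was applied to plants at the 2-3 leaf stage, grown from seed under 0.5-2 cm soil in greenhouse pots. Spray solution contained acetone, tween-80 and methyl oleate emulsible concentrate at 1.5 liters per hectare.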

For test [3], the system named is Digitaria sanguinalis. Kind of test: Post-emergence test experiment, Digitaria sanguinalis. The note with it: 1000 g a.i./ha, 3 weeks in greenhouse, fresh weight inhibition. The gist of the method:
as §1

For the molecule `C[C@@H](Oc1nc(F)c(Cl)c(N)c1Cl)C(=O)OCc1ccc2ccccc2c1` [Compound 2-340], in test [1], the “Activity level (growth inhibition rate), Abutilon theophrasti Medic.” value is 5 (Level 5: the growth inhibition rate is greater than 85%); the “Activity level (growth inhibition rate), Galium aparine” value is given as 5 (Level 5: the growth inhibition rate is greater than 85%); the “Activity level (growth inhibition rate), Monochoria Vaginalis” value is on record as 5 (Level 5: the growth inhibition rate is greater than 85%). The “Activity level (growth inhibition rate), Echinochloa crusgalli” value in test [2] is listed as 5 (Level 5: the growth inhibition rate is greater than 85%). For the same molecule, the “Activity level (growth inhibition rate), Digitaria sanguinalis” value in test [3] was 5 (Level 5: the growth inhibition rate is greater than 85%).

As for `CCCCCCCCCCCSC(=O)[C@@H](C)Oc1nc(F)c(Cl)c(N)c1Cl` [Compound 2-216], in test [1], the “Activity level (growth inhibition rate), Abutilon theophrasti Medic.” value was 5 (Level 5: the growth inhibition rate is greater than 85%); the “Activity level (growth inhibition rate), Galium aparine” value is given as 5 (Level 5: the growth inhibition rate is greater than 85%); the “Activity level (growth inhibition rate), Monochoria Vaginalis” value is on record as 5 (Level 5: the growth inhibition rate is greater than 85%). Also, in test [2], the “Activity level (growth inhibition rate), Echinochloa crusgalli” value is on record as 5 (Level 5: the growth inhibition rate is greater than 85%). For the same molecule, the “Activity level (growth inhibition rate), Digitaria sanguinalis” value in test [3] was 5 (Level 5: the growth inhibition rate is greater than 85%).

On to `C[C@@H](Oc1nc(F)c(Cl)c(N)c1Cl)C(=O)OCc1ccncc1` [Compound 2-344], for which, in test [1], the “Activity level (growth inhibition rate), Abutilon theophrasti Medic.” value is 5 (Level 5: the growth inhibition rate is greater than 85%); the “Activity level (growth inhibition rate), Galium aparine” value is on record as 5 (Level 5: the growth inhibition rate is greater than 85%); the “Activity level (growth inhibition rate), Monochoria Vaginalis” value is on record as 5 (Level 5: the growth inhibition rate is greater than 85%). Besides, the “Activity level (growth inhibition rate), Echinochloa crusgalli” value in test [2] is given as 5 (Level 5: the growth inhibition rate is greater than 85%). Further, the “Activity level (growth inhibition rate), Digitaria sanguinalis” value in test [3] is 5 (Level 5: the growth inhibition rate is greater than 85%).

As for `COC(=O)[C@@H](C)Oc1nc(Cl)c(Cl)c(N)c1Cl` [Compound 2-31], in test [1], the “Activity level (growth inhibition rate), Abutilon theophrasti Medic.” value was 5 (Level 5: the growth inhibition rate is greater than 85%); the “Activity level (growth inhibition rate), Galium aparine” value is given as 5 (Level 5: the growth inhibition rate is greater than 85%); the “Activity level (growth inhibition rate), Monochoria Vaginalis” value was 5 (Level 5: the growth inhibition rate is greater than 85%). The “Activity level (growth inhibition rate), Echinochloa crusgalli” value in test [2] is 5 (Level 5: the growth inhibition rate is greater than 85%). In addition, the “Activity level (growth inhibition rate), Digitaria sanguinalis” value in test [3] is recorded as 5 (Level 5: the growth inhibition rate is greater than 85%).

For the molecule `C[C@@H](Oc1nc(F)c(Cl)c(N)c1Cl)C(=O)OC(C)(C)C` [Compound 2-83], in test [1], the “Activity level (growth inhibition rate), Abutilon theophrasti Medic.” value is recorded as 5 (Level 5: the growth inhibition rate is greater than 85%); the “Activity level (growth inhibition rate), Galium aparine” value is reported as 5 (Level 5: the growth inhibition rate is greater than 85%); the “Activity level (growth inhibition rate), Monochoria Vaginalis” value is listed as 5 (Level 5: the growth inhibition rate is greater than 85%). Moreover, in test [2], the “Activity level (growth inhibition rate), Echinochloa crusgalli” value is on record as 5 (Level 5: the growth inhibition rate is greater than 85%). In test [3], the “Activity level (growth inhibition rate), Digitaria sanguinalis” value is on record as 5 (Level 5: the growth inhibition rate is greater than 85%).

As for `CCC(C)CSC(=O)[C@@H](C)Oc1nc(F)c(Cl)c(N)c1Cl` (stereo partly shown) [Compound 2-88], in test [1], the “Activity level (growth inhibition rate), Abutilon theophrasti Medic.” value is reported as 5 (Level 5: the growth inhibition rate is greater than 85%); the “Activity level (growth inhibition rate), Galium aparine” value was 5 (Level 5: the growth inhibition rate is greater than 85%); the “Activity level (growth inhibition rate), Monochoria Vaginalis” value is reported as 5 (Level 5: the growth inhibition rate is greater than 85%). In test [2], the “Activity level (growth inhibition rate), Echinochloa crusgalli” value is on record as 5 (Level 5: the growth inhibition rate is greater than 85%). The “Activity level (growth inhibition rate), Digitaria sanguinalis” value in test [3] was 5 (Level 5: the growth inhibition rate is greater than 85%).

As to `C[C@@H](Oc1nc(F)c(Cl)c(N)c1Cl)C(=O)OCC(C)(C)C` [Compound 2-91], in test [1], the “Activity level (growth inhibition rate), Abutilon theophrasti Medic.” value is 5 (Level 5: the growth inhibition rate is greater than 85%); the “Activity level (growth inhibition rate), Galium aparine” value is given as 5 (Level 5: the growth inhibition rate is greater than 85%); the “Activity level (growth inhibition rate), Monochoria Vaginalis” value is 5 (Level 5: the growth inhibition rate is greater than 85%). In addition, in test [2], the “Activity level (growth inhibition rate), Echinochloa crusgalli” value was 5 (Level 5: the growth inhibition rate is greater than 85%). For the same molecule, in test [3], the “Activity level (growth inhibition rate), Digitaria sanguinalis” value is reported as 5 (Level 5: the growth inhibition rate is greater than 85%).

With `CCC(C)COC(=O)[C@@H](C)Oc1nc(F)c(Cl)c(N)c1Cl` (stereo partly shown) [Compound 2-87], in test [1], the “Activity level (growth inhibition rate), Abutilon theophrasti Medic.” value is given as 5 (Level 5: the growth inhibition rate is greater than 85%); the “Activity level (growth inhibition rate), Galium aparine” value is 5 (Level 5: the growth inhibition rate is greater than 85%); the “Activity level (growth inhibition rate), Monochoria Vaginalis” value is 5 (Level 5: the growth inhibition rate is greater than 85%). Besides, the “Activity level (growth inhibition rate), Echinochloa crusgalli” value in test [2] is 5 (Level 5: the growth inhibition rate is greater than 85%). The “Activity level (growth inhibition rate), Digitaria sanguinalis” value in test [3] was 5 (Level 5: the growth inhibition rate is greater than 85%).

As for `CCCCCCCCOC(=O)[C@@H](C)Oc1nc(F)c(Cl)c(N)c1Cl` [Compound 2-155], in test [1], the “Activity level (growth inhibition rate), Abutilon theophrasti Medic.” value is given as 5 (Level 5: the growth inhibition rate is greater than 85%); the “Activity level (growth inhibition rate), Galium aparine” value was 5 (Level 5: the growth inhibition rate is greater than 85%); the “Activity level (growth inhibition rate), Monochoria Vaginalis” value was 5 (Level 5: the growth inhibition rate is greater than 85%). Moreover, the “Activity level (growth inhibition rate), Echinochloa crusgalli” value in test [2] is 5 (Level 5: the growth inhibition rate is greater than 85%). The “Activity level (growth inhibition rate), Digitaria sanguinalis” value in test [3] was 5 (Level 5: the growth inhibition rate is greater than 85%).

As to `CC(Oc1nc(F)c(Cl)c(N)c1Cl)C(=O)OCc1cccc(Br)c1` (stereo not shown) [Compound 2-322], in test [1], the “Activity level (growth inhibition rate), Abutilon theophrasti Medic.” value is on record as 5 (Level 5: the growth inhibition rate is greater than 85%); the “Activity level (growth inhibition rate), Galium aparine” value was 5 (Level 5: the growth inhibition rate is greater than 85%); the “Activity level (growth inhibition rate), Monochoria Vaginalis” value was 5 (Level 5: the growth inhibition rate is greater than 85%). In addition, in test [2], the “Activity level (growth inhibition rate), Echinochloa crusgalli” value is reported as 5 (Level 5: the growth inhibition rate is greater than 85%). For the same molecule, the “Activity level (growth inhibition rate), Digitaria sanguinalis” value in test [3] is reported as 5 (Level 5: the growth inhibition rate is greater than 85%).

Turning to `CC(Oc1nc(F)c(Cl)c(N)c1Cl)C(=O)SCc1cccc(Cl)c1` (stereo not shown) [Compound 2-317], in test [1], the “Activity level (growth inhibition rate), Abutilon theophrasti Medic.” value is reported as 5 (Level 5: the growth inhibition rate is greater than 85%); the “Activity level (growth inhibition rate), Galium aparine” value is 5 (Level 5: the growth inhibition rate is greater than 85%); the “Activity level (growth inhibition rate), Monochoria Vaginalis” value is reported as 5 (Level 5: the growth inhibition rate is greater than 85%). Moreover, the “Activity level (growth inhibition rate), Echinochloa crusgalli” value in test [2] is 5 (Level 5: the growth inhibition rate is greater than 85%). Further, in test [3], the “Activity level (growth inhibition rate), Digitaria sanguinalis” value is listed as 5 (Level 5: the growth inhibition rate is greater than 85%).
